Data on 4 molecules can be found in publication PMC1991597, “Structure and Reaction Mechanism of Basil Eugenol Synthase” (PLoS ONE, 2007).

For orientation: Ki means a measure of affinity in units of concentration, obtained from inhibition or displacement. A low value points to tighter binding. As a reminder, the Km is the substrate concentration at which the rate is half of its maximum.

Substitutions are numbered along the chain they refer to.

The target of data set [1] is T1, eugenol synthase (EGS, EGS1) (Ocimum basilicum, UniProt Q15GI4, K132Q).
T1 sequence (Q15GI4 1-314 K132Q): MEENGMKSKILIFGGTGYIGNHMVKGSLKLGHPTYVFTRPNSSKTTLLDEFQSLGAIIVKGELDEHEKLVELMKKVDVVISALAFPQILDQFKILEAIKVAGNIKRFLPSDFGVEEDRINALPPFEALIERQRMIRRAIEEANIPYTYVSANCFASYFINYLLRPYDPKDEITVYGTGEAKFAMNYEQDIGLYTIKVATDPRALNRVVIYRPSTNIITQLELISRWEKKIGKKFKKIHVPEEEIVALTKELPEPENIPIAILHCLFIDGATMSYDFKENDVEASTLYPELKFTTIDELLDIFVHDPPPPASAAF
The data set can be described thus: X-ray co-crystal structure ([…] Å). Format: binding.

The target in data set [2] is T2, eugenol synthase (EGS, EGS1) (Ocimum basilicum, UniProt Q15GI4, K132A).
T2 sequence (Q15GI4 1-314 K132A): T1 sequence (Q15GI4 1-314 K132Q) with Q132A
The data set can be described thus: X-ray crystallography (no deposition stated). Format: binding.

Data set [3] addresses T3, eugenol synthase (EGS, EGS1) (Ocimum basilicum, UniProt Q15GI4, K132R).
T3 sequence (Q15GI4 1-314 K132R): T1 sequence (Q15GI4 1-314 K132Q) with Q132R
As to the kind of experiment: X-ray crystallography (preliminary structural analysis). Format: binding.

Data set [4] deals with T4, eugenol synthase (EGS, EGS1) (Ocimum basilicum, UniProt Q15GI4). The data set can be described thus: X-ray co-crystal structure ([…] Å, soaking); enzyme inhibition kinetics (GC/MS). Format: biochemical.
T4 sequence (Q15GI4 whole entry): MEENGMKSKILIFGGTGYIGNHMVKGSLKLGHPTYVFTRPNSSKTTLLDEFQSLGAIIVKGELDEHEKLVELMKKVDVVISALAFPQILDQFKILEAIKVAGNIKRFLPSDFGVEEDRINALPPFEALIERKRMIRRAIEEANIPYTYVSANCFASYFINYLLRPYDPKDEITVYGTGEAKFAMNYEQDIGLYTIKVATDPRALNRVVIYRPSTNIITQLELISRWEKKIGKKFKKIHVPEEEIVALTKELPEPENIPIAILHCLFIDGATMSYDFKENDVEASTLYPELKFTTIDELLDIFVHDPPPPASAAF
For data set [5], the target named is T4, eugenol synthase (EGS, EGS1). The data set can be described thus: X-ray crystal structure ([…] Å monoclinic; also 2QX7 orthorhombic). Format: binding.
The target is the same in data set [6]. The data set can be described thus: X-ray crystal structure ([…] Å). Format: binding.
Substrate in data set [7]: COc1cc(/C=C/COC(C)=O)ccc1O
As to the kind of experiment: enzyme kinetics by GC/MS (Km); crystal soaking gave no stable complex. Format: biochemical, Ocimum basilicum. Conditions: NADPH active site (binding mode modeled only).

Take `CCOC(=O)[C@H]1C[C@@H]1c1ccc(O)c(OC)c1` [EMDF, (1S,2S)-ethyl 2-(4-hydroxy-3-methoxyphenyl) cyclo-propanecarboxylate]: the “X-ray co-crystal structure (1.8 Å)” value in data set [1] is “for the Ala132 and Gln132 mutants, both NADP^+ and EMDF binding are little affected (Figure 5C)”. Moreover, the “X-ray crystallography (no deposition stated)” value in data set [2] was “Crystallographic analyses confirmed that for the Ala132 and Gln132 mutants, both NADP^+ and EMDF binding are little affected”. In data set [3], the “X-ray crystallography (preliminary structural analysis)” value was “EMDF-bound forms of the Lys132Arg mutant shows that the Arg132 guanidinium moiety is displaced slightly by the EMDF guaiacol ring”. This molecule had a Ki in data set [4] of 800 µM.

As to `NC(=O)c1ccc[n+]([C@@H]2O[C@H](COP(=O)(O)OP(=O)(O)OC[C@H]3O[C@@H](n4cnc5c(N)ncnc54)[C@H](OP(=O)(O)O)[C@@H]3O)[C@@H](O)[C@H]2O)c1` [NADP+], in data set [5], the “X-ray crystal structure (1.6 Å monoclinic; also 2QX7 orthorhombic)” value is listed as “The structures of EGS complexed with NADP^+ or NADPH provide the first structural characterization of nicotinamide-cofactor binding”.

Turning to `NC(=O)C1=CN([C@@H]2O[C@H](COP(=O)(O)OP(=O)(O)OC[C@H]3O[C@@H](n4cnc5c(N)ncnc54)[C@H](OP(=O)(O)O)[C@@H]3O)[C@@H](O)[C@H]2O)C=CC1` [NADPH], the “X-ray crystal structure (1.6 Å)” value in data set [6] is “Structural differences between the NADP^+ and NADPH complexes of EGS are small, and center around the nicotinamide ring”.

B1: eugenol synthase (EGS, EGS1) (Ocimum basilicum) (protein)
chain: T1 sequence (Q15GI4 1-314 K132Q) with Q132K
For the molecule B1, the Km in data set [7] was 570 µM.
